Columns and labels:
Type in all cases: in vivo
Details in all cases: 250 g/ha, evaluated after 13 days
Setaria faberi (SETFA) [1] = assay: Post-emergence Test, glasshouse, SETFA
Summary of the method: (§1)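 Spray: 250 g/ha (unless stated), acetone/water 50:50 + 0.5% Tween 20; pre-em 1 d, post-em 8 d after sowing. Glasshouse 24/16 °C, 14 h light, 65% RH, watered twice daily. Damage read at 13 d on 5-point scale.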

IPOHE [2] = assay: Pre-emergence Test, glasshouse, IPOHE
Summary of the method: as §1

IPOHE [3] = assay: Post-emergence Test, glasshouse, IPOHE
Summary of the method: as §1

[4] = test system: Echinochloa crus-galli (ECHCG); assay: Pre-emergence Test, glasshouse, ECHCG
Summary of the method: as §1

Setaria faberi (SETFA) [5] = assay: Pre-emergence Test, glasshouse, SETFA
Summary of the method: as §1

ABUTH [6] = assay: Post-emergence Test, glasshouse, ABUTH
Summary of the method: as §1

[7] = test system: Amaranthus retoflexus (AMARE); assay: Pre-emergence Test, glasshouse, AMARE
Summary of the method: as §1

[8] = test system: Echinochloa crus-galli (ECHCG); assay: Post-emergence Test, glasshouse, ECHCG
Summary of the method: as §1

[9] = test system: Amaranthus retoflexus (AMARE); assay: Post-emergence Test, glasshouse, AMARE
Summary of the method: as §1

ABUTH [10] = assay: Pre-emergence Test, glasshouse, ABUTH
Summary of the method: as §1

FC(F)(F)CCCn1ncc2cc(Br)cc(Oc3ncc(Cl)cn3)c21 [Compound 1.011, 5-bromo-7-(5-chloropyrimidin-2-yl)oxy-1-(4,4,4-trifluorobutyl)indazole]
percentage damage caused to the plant, five-point scale, SETFA (Setaria faberi (SETFA) [1]): 1 (1=0-20%)
percentage damage caused to the plant, five-point scale, IPOHE (IPOHE [2]): 1 (1=0-20%)
percentage damage caused to the plant, five-point scale, IPOHE (IPOHE [3]): 1 (1=0-20%)
percentage damage caused to the plant, five-point scale, ECHCG [4]: 1 (1=0-20%)
percentage damage caused to the plant, five-point scale, SETFA (Setaria faberi (SETFA) [5]): 1 (1=0-20%)
percentage damage caused to the plant, five-point scale, ABUTH (ABUTH [6]): 1 (1=0-20%)
percentage damage caused to the plant, five-point scale, AMARE [7]: 1 (1=0-20%)
percentage damage caused to the plant, five-point scale, ECHCG [8]: 1 (1=0-20%)
percentage damage caused to the plant, five-point scale, AMARE [9]: 3 (3=41-60%)
percentage damage caused to the plant, five-point scale, ABUTH (ABUTH [10]): 1 (1=0-20%)

COCCn1nc(Cl)c2cccc(Oc3ncc(Cl)cn3)c21 [Compound 1.034]
percentage damage caused to the plant, five-point scale, SETFA (Setaria faberi (SETFA) [1]): 4 (4=61-80%)
percentage damage caused to the plant, five-point scale, IPOHE (IPOHE [2]): 3 (3=41-60%)
percentage damage caused to the plant, five-point scale, IPOHE (IPOHE [3]): 4 (4=61-80%)
percentage damage caused to the plant, five-point scale, ECHCG [4]: 5 (5=81-100%)
percentage damage caused to the plant, five-point scale, SETFA (Setaria faberi (SETFA) [5]): 5 (5=81-100%)
percentage damage caused to the plant, five-point scale, ABUTH (ABUTH [6]): 4 (4=61-80%)
percentage damage caused to the plant, five-point scale, AMARE [7]: 5 (5=81-100%)
percentage damage caused to the plant, five-point scale, ECHCG [8]: 4 (4=61-80%)
percentage damage caused to the plant, five-point scale, AMARE [9]: 5 (5=81-100%)
percentage damage caused to the plant, five-point scale, ABUTH (ABUTH [10]): 2 (2=21-40%)

Fc1cnc(Oc2cccc3c(C(F)(F)F)nn(CCCC(F)(F)F)c23)nc1 [Compound 1.071]
percentage damage caused to the plant, five-point scale, SETFA (Setaria faberi (SETFA) [1]): 4 (4=61-80%)
percentage damage caused to the plant, five-point scale, IPOHE (IPOHE [2]): 2 (2=21-40%)
percentage damage caused to the plant, five-point scale, IPOHE (IPOHE [3]): 4 (4=61-80%)
percentage damage caused to the plant, five-point scale, ECHCG [4]: 5 (5=81-100%)
percentage damage caused to the plant, five-point scale, SETFA (Setaria faberi (SETFA) [5]): 5 (5=81-100%)
percentage damage caused to the plant, five-point scale, ABUTH (ABUTH [6]): 5 (5=81-100%)
percentage damage caused to the plant, five-point scale, AMARE [7]: 5 (5=81-100%)
percentage damage caused to the plant, five-point scale, ECHCG [8]: 4 (4=61-80%)
percentage damage caused to the plant, five-point scale, AMARE [9]: 5 (5=81-100%)
percentage damage caused to the plant, five-point scale, ABUTH (ABUTH [10]): 3 (3=41-60%)

CCCCCCn1nc(Cl)c2cccc(Oc3ncc(Cl)cn3)c21 [Compound 1.058]
percentage damage caused to the plant, five-point scale, SETFA (Setaria faberi (SETFA) [1]): 2 (2=21-40%)
percentage damage caused to the plant, five-point scale, IPOHE (IPOHE [2]): 1 (1=0-20%)
percentage damage caused to the plant, five-point scale, IPOHE (IPOHE [3]): 2 (2=21-40%)
percentage damage caused to the plant, five-point scale, ECHCG [4]: 3 (3=41-60%)
percentage damage caused to the plant, five-point scale, SETFA (Setaria faberi (SETFA) [5]): 3 (3=41-60%)
percentage damage caused to the plant, five-point scale, ABUTH (ABUTH [6]): 3 (3=41-60%)
percentage damage caused to the plant, five-point scale, AMARE [7]: 2 (2=21-40%)
percentage damage caused to the plant, five-point scale, ECHCG [8]: 3 (3=41-60%)
percentage damage caused to the plant, five-point scale, AMARE [9]: 4 (4=61-80%)
percentage damage caused to the plant, five-point scale, ABUTH (ABUTH [10]): 2 (2=21-40%)

FC(F)OCCn1nc(Cl)c2cccc(Oc3ncc(Cl)cn3)c21 [Compound 1.051]
percentage damage caused to the plant, five-point scale, SETFA (Setaria faberi (SETFA) [1]): 4 (4=61-80%)
percentage damage caused to the plant, five-point scale, IPOHE (IPOHE [2]): 2 (2=21-40%)
percentage damage caused to the plant, five-point scale, IPOHE (IPOHE [3]): 3 (3=41-60%)
percentage damage caused to the plant, five-point scale, ECHCG [4]: 4 (4=61-80%)
percentage damage caused to the plant, five-point scale, SETFA (Setaria faberi (SETFA) [5]): 5 (5=81-100%)
percentage damage caused to the plant, five-point scale, ABUTH (ABUTH [6]): 4 (4=61-80%)
percentage damage caused to the plant, five-point scale, AMARE [7]: 5 (5=81-100%)
percentage damage caused to the plant, five-point scale, ECHCG [8]: 4 (4=61-80%)
percentage damage caused to the plant, five-point scale, AMARE [9]: 5 (5=81-100%)
percentage damage caused to the plant, five-point scale, ABUTH (ABUTH [10]): 3 (3=41-60%)

CC(C)Cn1nc(Cl)c2cccc(Oc3ncc(Cl)cn3)c21 [Compound 1.057]
percentage damage caused to the plant, five-point scale, SETFA (Setaria faberi (SETFA) [1]): 1 (1=0-20%)
percentage damage caused to the plant, five-point scale, IPOHE (IPOHE [2]): 1 (1=0-20%)
percentage damage caused to the plant, five-point scale, IPOHE (IPOHE [3]): 1 (1=0-20%)
percentage damage caused to the plant, five-point scale, ECHCG [4]: 2 (2=21-40%)
percentage damage caused to the plant, five-point scale, SETFA (Setaria faberi (SETFA) [5]): 4 (4=61-80%)
percentage damage caused to the plant, five-point scale, ABUTH (ABUTH [6]): 2 (2=21-40%)
percentage damage caused to the plant, five-point scale, AMARE [7]: 2 (2=21-40%)
percentage damage caused to the plant, five-point scale, ECHCG [8]: 1 (1=0-20%)
percentage damage caused to the plant, five-point scale, AMARE [9]: 3 (3=41-60%)
percentage damage caused to the plant, five-point scale, ABUTH (ABUTH [10]): 2 (2=21-40%)

N#Cc1ccc2cnn(CCCC(F)(F)F)c2c1Oc1ncc(Cl)cn1 [Compound 1.046]
percentage damage caused to the plant, five-point scale, SETFA (Setaria faberi (SETFA) [1]): 1 (1=0-20%)
percentage damage caused to the plant, five-point scale, IPOHE (IPOHE [2]): 1 (1=0-20%)
percentage damage caused to the plant, five-point scale, IPOHE (IPOHE [3]): 1 (1=0-20%)
percentage damage caused to the plant, five-point scale, ECHCG [4]: 1 (1=0-20%)
percentage damage caused to the plant, five-point scale, SETFA (Setaria faberi (SETFA) [5]): 1 (1=0-20%)
percentage damage caused to the plant, five-point scale, ABUTH (ABUTH [6]): 2 (2=21-40%)
percentage damage caused to the plant, five-point scale, AMARE [7]: 1 (1=0-20%)
percentage damage caused to the plant, five-point scale, ECHCG [8]: 1 (1=0-20%)
percentage damage caused to the plant, five-point scale, AMARE [9]: 2 (2=21-40%)
percentage damage caused to the plant, five-point scale, ABUTH (ABUTH [10]): 2 (2=21-40%)

N#Cc1ccc2c(Cl)nn(CCCC(F)(F)F)c2c1Oc1ncc(Cl)cn1 [Compound 1.041, 3-chloro-7-(5-chloropyrimidin-2-yl)oxy-1-(4,4,4-trifluorobutyl)indazole-6-carbonitrile]
percentage damage caused to the plant, five-point scale, SETFA (Setaria faberi (SETFA) [1]): 1 (1=0-20%)
percentage damage caused to the plant, five-point scale, IPOHE (IPOHE [2]): 1 (1=0-20%)
percentage damage caused to the plant, five-point scale, IPOHE (IPOHE [3]): 1 (1=0-20%)
percentage damage caused to the plant, five-point scale, ECHCG [4]: 1 (1=0-20%)
percentage damage caused to the plant, five-point scale, SETFA (Setaria faberi (SETFA) [5]): 1 (1=0-20%)
percentage damage caused to the plant, five-point scale, ABUTH (ABUTH [6]): 1 (1=0-20%)
percentage damage caused to the plant, five-point scale, AMARE [7]: 1 (1=0-20%)
percentage damage caused to the plant, five-point scale, ECHCG [8]: 1 (1=0-20%)
percentage damage caused to the plant, five-point scale, AMARE [9]: 1 (1=0-20%)
percentage damage caused to the plant, five-point scale, ABUTH (ABUTH [10]): 1 (1=0-20%)

FC(F)(F)OCCn1nc(Cl)c2cccc(Oc3ncc(Cl)cn3)c21 [Compound 1.052]
percentage damage caused to the plant, five-point scale, SETFA (Setaria faberi (SETFA) [1]): 3 (3=41-60%)
percentage damage caused to the plant, five-point scale, IPOHE (IPOHE [2]): 1 (1=0-20%)
percentage damage caused to the plant, five-point scale, IPOHE (IPOHE [3]): 3 (3=41-60%)
percentage damage caused to the plant, five-point scale, ECHCG [4]: 4 (4=61-80%)
percentage damage caused to the plant, five-point scale, SETFA (Setaria faberi (SETFA) [5]): 5 (5=81-100%)
percentage damage caused to the plant, five-point scale, ABUTH (ABUTH [6]): 5 (5=81-100%)
percentage damage caused to the plant, five-point scale, AMARE [7]: 5 (5=81-100%)
percentage damage caused to the plant, five-point scale, ECHCG [8]: 4 (4=61-80%)
percentage damage caused to the plant, five-point scale, AMARE [9]: 5 (5=81-100%)
percentage damage caused to the plant, five-point scale, ABUTH (ABUTH [10]): 3 (3=41-60%)
